Results from the supplement of paper PMC10307832.

Tests used:
Assay in all cases: relative viability (nuclei count vs DMSO), 5 days (fraction); higher = more cells survive
Halofuginone + OSI-027 = compound: O=C(C[C@H]1NCCC[C@@H]1O)Cn1cnc2cc(Br)c(Cl)cc2c1=O (racemic) [Halofuginone] + COc1cccc2cc(-c3nc([C@H]4CC[C@H](C(=O)O)CC4)n4ncnc(N)c34)[nH]c12 [OSI-027] (partner 0.5 µM)
Outline: (§1)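 After 5 days of treatment, lung cancer cells in 1536-well plates were fixed and stained in a single step (final 0.05% Triton X-100, 1% formaldehyde, 1 ug/ml Hoechst) and their nuclei counted on 4× images. Treatment had been applied by pin tool the day after seeding as one drug alone or as a fixed anchor-drug dose with five library-drug doses (not always all listed) in √10 steps. Relative viability is the nuclei count of treated wells divided by that of vehicle wells, and values are medians of duplicate plates.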

Decitabine + Phenformin = compound: Nc1ncn([C@H]2C[C@H](O)[C@@H](CO)O2)c(=O)n1 [Decitabine] + N=C(N)NC(=N)NCCc1ccccc1 [Phenformin] (partner 250 µM)
Outline: as §1

[1] = compound: O=C(C[C@H]1NCCC[C@@H]1O)Cn1cnc2cc(Br)c(Cl)cc2c1=O (racemic) [Halofuginone] + C[C@@H](Oc1cc(-c2cnn(C3CCNCC3)c2)cnc1N)c1c(Cl)ccc(F)c1Cl [Crizotinib] (partner 1 µM)
Outline: as §1

Decitabine + Luminespib = compound: Nc1ncn([C@H]2C[C@H](O)[C@@H](CO)O2)c(=O)n1 [Decitabine] + CCNC(=O)c1noc(-c2cc(C(C)C)c(O)cc2O)c1-c1ccc(CN2CCOCC2)cc1 [Luminespib] (partner 0.01 µM)
Outline: as §1

| Cell Line | relative viability (Halofuginone + OSI-027; first compound 0.001 µM) | relative viability (Halofuginone + OSI-027; first compound 0.003162 µM) | relative viability (Halofuginone + OSI-027; first compound 0.01 µM) | relative viability (Halofuginone + OSI-027; first compound 0.03162 µM) | relative viability (Halofuginone + OSI-027; first compound 0.1 µM) | relative viability (Decitabine + Phenformin; first compound 0.04 µM) | relative viability (Decitabine + Phenformin; first compound 0.1265 µM) | relative viability (Decitabine + Phenformin; first compound 0.4 µM) | relative viability (Decitabine + Phenformin; first compound 1.265 µM) | relative viability (Decitabine + Phenformin; first compound 4 µM) | relative viability ([1]; first compound 0.001 µM) | relative viability ([1]; first compound 0.003162 µM) | relative viability ([1]; first compound 0.01 µM) | relative viability ([1]; first compound 0.03162 µM) | relative viability ([1]; first compound 0.1 µM) | relative viability (Decitabine + Luminespib; first compound 0.04 µM) | relative viability (Decitabine + Luminespib; first compound 0.1265 µM) | relative viability (Decitabine + Luminespib; first compound 0.4 µM) | relative viability (Decitabine + Luminespib; first compound 1.265 µM) | relative viability (Decitabine + Luminespib; first compound 4 µM) |
| --- | --- | --- | --- | --- | --- | --- | --- | --- | --- | --- | --- | --- | --- | --- | --- | --- | --- | --- | --- | --- |
| NCI-H2347 | 0.577 | 0.336 | 0.454 | 0.425 | 0.344 | 0.472 | 0.384 | 0.413 | 0.467 | 0.326 | 0.677 | 0.72 | 0.81 | 0.736 | 0.551 | 0.472 | 0.393 | 0.515 | 0.453 | 0.36 |
| NCI-H2405 | 0.71 | 0.656 | 0.638 | 0.619 | 0.577 | 0.388 | 0.39 | 0.408 | 0.321 | 0.366 | 0.907 | 0.935 | 0.822 | 0.831 | 0.74 | 0.798 | 0.654 | 0.59 | 0.431 | 0.445 |
| NCI-H3122 | 0.894 | 1.05 | 0.867 | 0.943 | 0.384 | 0.371 | 0.364 | 0.342 |  | 0.315 | 0.253 | 0.251 | 0.232 | 0.281 | 0.264 | 0.0814 | 0.0807 | 0.0785 | 0.0889 | 0.0802 |
| PC-3 [JPC-3] | 0.798 | 0.804 | 0.75 | 0.76 | 0.736 | 0.372 | 0.452 | 0.393 | 0.386 | 0.379 | 1.03 | 0.969 | 0.975 | 0.943 | 0.988 | 0.43 | 0.708 | 0.454 | 0.408 | 0.488 |
| PC-14 | 0.828 | 0.962 | 0.704 | 0.471 | 0.0328 | 0.114 | 0.339 | 0.128 | 0.126 | 0.163 | 1 | 0.826 | 0.727 | 0.722 | 0.183 | 0.145 | 0.227 | 0.173 | 0.168 | 0.131 |
| RERF-LC-KJ | 0.618 | 0.609 | 0.537 | 0.565 | 0.488 | 0.459 | 0.386 |  | 0.402 | 0.333 | 0.888 | 0.791 | 0.807 | 0.818 | 0.823 | 1.18 | 1.01 |  | 0.582 | 0.685 |
| SK-LU-1 | 0.388 | 0.399 | 0.406 | 0.341 | 0.276 | 0.42 | 0.448 | 0.278 | 0.344 | 0.297 | 1.25 | 0.978 | 0.836 | 0.927 | 0.325 | 0.18 | 0.212 | 0.196 | 0.204 | 0.208 |
| SK-MES-1 | 0.679 | 0.666 | 0.557 | 0.498 | 0.152 | 0.535 | 0.553 | 0.346 | 0.271 | 0.291 | 1.02 | 1.01 | 0.863 | 0.778 | 0.302 | 0.566 | 0.575 | 0.331 | 0.288 | 0.232 |
| SW 1573 | 0.919 | 0.85 | 0.571 | 0.509 | 0.143 | 0.32 | 0.327 | 0.323 | 0.287 | 0.168 | 1.03 | 0.915 | 0.803 | 0.574 | 0.195 | 0.135 | 0.172 | 0.201 | 0.143 | 0.151 |
